Assay [1] deals with human orexin 1 receptor (Homo sapiens, UniProt O43613). The assay can be described thus: Human orexin 1 receptor radioligand binding. The conditions noted are these: read-out: hOX1 Ki. On the procedure: (§1) Rat and Human Orexin 1 Receptor Radioligand Binding Studies
(§2) After centrifugation (2K×G, 5 min at 4° C.), the supernatant was aspirated and the pellets frozen and stored at −80° C. […] Each cell pellet from a 15 cm plate was resuspended in 10 mL, stored on ice, and homogenized for 45 sec prior to addition to the reactions. […] The final concentration of DMSO in the reactions is equal to or less than 0.1%. Total and nonspecific binding was determined in the absence and presence of 10 μM almorexant. The total volume of each reaction is 200 μL (20 μL of diluted compounds, 80 μL of [^3H]-(1-(5-(2-fluoro-phenyl)-2-methyl-thiazol-4-yl)-1-((S)-2-(5-phenyl-(1,3,4)oxadiazol-2-ylmethyl)-pyrrolidin-1-yl)-methanone) diluted in PBS and 100 μL of the cell suspension). […] The plates were washed 3 times by aspirating 30 ml PBS through the plates. Plates were dried in 55° C. oven for 60 min, scintillation fluid was added, and the radioactivity was counted on a Topcount (Packard).

Assay [2] has as its target human orexin 2 receptor (Homo sapiens (Human), UniProt O43614). Nature of the assay: Human orexin 2 receptor radioligand binding. The conditions noted are these: read-out: hOX2 Ki. Here is the method:
Human Orexin 2 Receptor Radioligand Binding Studies
as §2, with “sec just” for “sec”, “reactions. Competition binding experiments in 96 well polypropylene plates were performed using [^3H]-EMPA (Moraveck Corporation, specific activity=29.6 Ci/mmol), diluted to a 5 nM concentration in PBS (2 nM final concentration).” for “reactions.”, “[^3H]-EMPA” for “[^3H]-(1-(5-(2-fluoro-phenyl)-2-methyl-thiazol-4-yl)-1-((S)-2-(5-phenyl-(1,3,4)oxadiazol-2-ylmethyl)-pyrrolidin-1-yl)-methanone)”

The target of assay [3] is rat orexin 1 receptor (Rattus norvegicus, UniProt P56718). Nature of the assay: Rat orexin 1 receptor radioligand binding. The conditions noted are these: read-out: rOX1 Ki. Here is the method: as §1, §2
Where [4] appears, read: CHO cells stably expressing human orexin 1 receptor, competitive radioligand binding, apparent Ki.
Where [5] appears, read: HEK293 stably expressing human orexin 2 receptor, [3H]-EMPA competitive binding, apparent Ki.
Where [6] appears, read: HEK293 cells stably expressing rat orexin 1 receptor, competitive radioligand binding, apparent Ki.

Molecules are shown by their SMILES. Read-outs that look alike come from different tables or passages of the source. Some results are limits rather than exact numbers.

Sequence of human orexin 2 receptor (O43614 whole entry): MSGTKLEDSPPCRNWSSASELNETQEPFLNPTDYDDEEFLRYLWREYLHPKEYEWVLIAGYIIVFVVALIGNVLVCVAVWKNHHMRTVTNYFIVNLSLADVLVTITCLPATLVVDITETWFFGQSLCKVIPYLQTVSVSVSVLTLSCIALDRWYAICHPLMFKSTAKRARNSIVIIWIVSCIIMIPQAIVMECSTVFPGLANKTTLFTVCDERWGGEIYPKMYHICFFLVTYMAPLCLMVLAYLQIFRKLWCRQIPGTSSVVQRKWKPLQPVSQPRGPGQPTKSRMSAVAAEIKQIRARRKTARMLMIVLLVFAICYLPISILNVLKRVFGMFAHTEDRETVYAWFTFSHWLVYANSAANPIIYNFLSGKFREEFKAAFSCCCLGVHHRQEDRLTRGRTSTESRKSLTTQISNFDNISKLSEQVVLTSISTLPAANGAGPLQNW

`CCOc1ccc2cccnc2c1C(=O)N1CC2CC(Oc3ccc(C(F)(F)F)cn3)C1C2` (racemic) [Example 10, (R/S)-(7-ethoxyquinolin-8-yl)(6-((5-(trifluoromethyl)pyridin-2-yl)oxy)-2-azabicyclo[2.2.1]heptan-2-yl)methanone]: the Ki in assay [1] (setting [4]) turned out to be 27 nM; in assay [2] (setting [5]), 526 nM; in assay [3] (setting [6]), 18 nM.

`COc1ccc(C(=O)N2CC3CC(Oc4ccc(C(F)(F)F)cn4)C2C3)c(-c2ncccn2)c1` (racemic) [Example 12, (R/S)-(4-methoxy-2-(pyrimidin-2-yl)phenyl)(6-((5-(trifluoromethyl)pyridin-2-yl)oxy)-2-azabicyclo[2.2.1]heptan-2-yl)methanone]: the Ki in assay [1] (setting [4]) is 59 nM; in assay [2] (setting [5]), above 10000 nM; in assay [3] (setting [6]), 44 nM.

`COc1ccc(C(=O)N2CC3CC(Oc4ccc(C(F)(F)F)cn4)C2C3)c(-n2nccn2)c1` (racemic) [Example 13]: the Ki in assay [1] (setting [4]) was 109 nM; in assay [2] (setting [5]), above 10000 nM; in assay [3] (setting [6]) it was 52 nM.

On to `O=C(c1cc(F)ccc1-c1ncccn1)N1CC2CC(Oc3ccc(C(F)(F)F)cn3)C1C2` (racemic) [Example 19, (R/S)-(5-fluoro-2-(pyrimidin-2-yl)phenyl)(6-((5-(trifluoromethyl)pyridin-2-yl)oxy)-2-azabicyclo[2.2.1]heptan-2-yl)methanone], for which the results for the Ki in assay [1] (setting [4]), in assay [2] (setting [5]) and in assay [3] (setting [6]) were 9 nM, 945 nM and 18 nM, respectively.

Take `Cc1ccc(C(=O)N2C[C@H]3C[C@@H](Oc4ccc(C(F)(F)F)cn4)[C@@H]2C3)c(-n2nccn2)n1` [Example 29, (6-methyl-2-(2H-1,2,3-triazol-2-yl)pyridin-3-yl)((1S,4R,6R)-6-((5-(trifluoromethyl)pyridin-2-yl)oxy)-2-azabicyclo[2.2.1]heptan-2-yl)methanone]: the Ki was 47 nM in assay [1] (setting [4]), above 10000 nM in assay [2] (setting [5]) and 55 nM in assay [3] (setting [6]).

On to `O=C(c1ncccc1-n1nccn1)N1C[C@H]2C[C@@H](Oc3ccc(C(F)(F)F)cn3)[C@@H]1C2` [Example 30, (3-(2H-1,2,3-triazol-2-yl)pyridin-2-yl)((1S,4R,6R)-6-((5-(trifluoromethyl)pyridin-2-yl)oxy)-2-azabicyclo[2.2.1]heptan-2-yl)methanone], for which the Ki worked out at 22 nM in assay [1] (setting [4]), 1700 nM in assay [2] (setting [5]) and 19 nM in assay [3] (setting [6]).

Regarding `Cc1ccc(C(=O)N2C[C@H]3C[C@@H](Oc4ccc(C(F)(F)F)cn4)[C@@H]2C3)c(-n2ccnn2)n1` [Example 34, (6-methyl-2-(1H-1,2,3-triazol-1-yl)pyridin-3-yl)((1S,4R,6R)-6-((5-(trifluoromethyl)pyridin-2-yl)oxy)-2-azabicyclo[2.2.1]heptan-2-yl)methanone], the Ki worked out at 462 nM in assay [1] (setting [4]), 1100 nM in assay [2] (setting [5]) and 117 nM in assay [3] (setting [6]).

Take `CCOc1ccc(C)nc1C(=O)N1C[C@H]2C[C@@H](Oc3ccc(C(F)(F)F)cn3)[C@@H]1C2` [Example 37, (3-ethoxy-6-methylpyridin-2-yl)((1S,4R,6R)-6-((5-(trifluoromethyl)pyridin-2-yl)oxy)-2-azabicyclo[2.2.1]heptan-2-yl)methanone]: the Ki was found to be 265 nM in assay [1] (setting [4]), 1800 nM in assay [2] (setting [5]) and 170 nM in assay [3] (setting [6]).

As for `O=C(c1c(F)cccc1-c1ncccn1)N1C[C@H]2C[C@@H](Oc3ccc(C(F)(F)F)cn3)[C@@H]1C2` [Example 38, (2-fluoro-6-(pyrimidin-2-yl)phenyl)((1S,4R,6R)-6-((5-(trifluoromethyl)pyridin-2-yl)oxy)-2-azabicyclo[2.2.1]heptan-2-yl)methanone], the Ki in assay [1] (setting [4]) is 8 nM; in assay [2] (setting [5]), 690 nM; in assay [3] (setting [6]), 8 nM.

With `COc1cccc(-c2ccn[nH]2)c1C(=O)N1C[C@H]2C[C@@H](Oc3ccc(C(F)(F)F)cn3)[C@@H]1C2` [Example 39, (2-methoxy-6-(1H-pyrazol-5-yl)phenyl)((1S,4R,6R)-6-((5-(trifluoromethyl)pyridin-2-yl)oxy)-2-azabicyclo[2.2.1]heptan-2-yl)methanone], the Ki in assay [1] (setting [4]) was determined as 17 nM; in assay [2] (setting [5]) it was 108 nM; in assay [3] (setting [6]) it was 132 nM.

As to `COc1cccc(-c2ncccn2)c1C(=O)N1C[C@H]2C[C@@H](Oc3ccc(C(F)(F)F)cn3)[C@@H]1C2` [Example 40, (2-methoxy-6-(pyrimidin-2-yl)phenyl)((1S,4R,6R)-6-((5-(trifluoromethyl)pyridin-2-yl)oxy)-2-azabicyclo[2.2.1]heptan-2-yl)methanone], the Ki stood at 9 nM in assay [1] (setting [4]), 340 nM in assay [2] (setting [5]) and 16 nM in assay [3] (setting [6]).

On to `O=C(c1cccc2cc[nH]c12)N1C[C@H]2C[C@@H](Oc3ccc(C(F)(F)F)cn3)[C@@H]1C2` [Example 42, (1H-indol-7-yl)((1S,4R,6R)-6-((5-(trifluoromethyl)pyridin-2-yl)oxy)-2-azabicyclo[2.2.1]heptan-2-yl)methanone], for which the results for the Ki in assay [1] (setting [4]), in assay [2] (setting [5]) and in assay [3] (setting [6]) were 175 nM, 5800 nM and 184 nM, respectively.

As to `O=C(c1ccc(F)cc1-n1nccn1)N1C[C@H]2C[C@@H](Oc3ccc(C(F)(F)F)cn3)[C@@H]1C2` [Example 44, (4-fluoro-2-(2H-1,2,3-triazol-2-yl)phenyl)((1S,4R,6R)-6-((5-(trifluoromethyl)pyridin-2-yl)oxy)-2-azabicyclo[2.2.1]heptan-2-yl)methanone], the Ki in assay [1] (setting [4]) worked out at 42 nM; in assay [2] (setting [5]) it was 2200 nM; in assay [3] (setting [6]) it was 22 nM.

Turning to `O=C(c1cccc(F)c1Br)N1C[C@H]2C[C@@H](Oc3ccc(C(F)(F)F)cn3)[C@@H]1C2` [Example 45, (2-bromo-3-fluorophenyl)((1S,4R,6R)-6-((5-(trifluoromethyl)pyridin-2-yl)oxy)-2-azabicyclo[2.2.1]heptan-2-yl)methanone], the Ki in assay [1] (setting [4]) was found to be 55 nM; in assay [2] (setting [5]) it was 1500 nM; in assay [3] (setting [6]), 60 nM.

For `O=C(c1cccc(F)c1-c1ncccn1)N1C[C@H]2C[C@@H](Oc3ccc(Br)cn3)[C@@H]1C2` [Example 48, ((1S,4R,6R)-6-((5-bromopyridin-2-yl)oxy)-2-azabicyclo[2.2.1]heptan-2-yl)(3-fluoro-2-(pyrimidin-2-yl)phenyl)methanone], the Ki in assay [1] (setting [4]) stood at 6 nM; in assay [2] (setting [5]), 972 nM; in assay [3] (setting [6]) it was 3 nM.

On to `O=C(c1ccccc1-n1nccn1)N1C[C@H]2C[C@@H](Oc3ccc(Br)cn3)[C@@H]1C2` [Example 49, (2-(2H-1,2,3-triazol-2-yl)phenyl)((1S,4R,6R)-6-((5-bromopyridin-2-yl)oxy)-2-azabicyclo[2.2.1]heptan-2-yl)methanone], for which the values for the Ki in assay [1] (setting [4]), in assay [2] (setting [5]) and in assay [3] (setting [6]) were 6 nM, 507 nM and 6 nM, respectively.

On to `Cc1ccc(-n2nccn2)c(C(=O)N2C[C@H]3C[C@@H](Oc4ccc(Br)cn4)[C@@H]2C3)n1` [Example 50, ((1S,4R,6R)-6-((5-bromopyridin-2-yl)oxy)-2-azabicyclo[2.2.1]heptan-2-yl)(6-methyl-3-(2H-1,2,3-triazol-2-yl)pyridin-2-yl)methanone], for which the Ki was determined as 9 nM in assay [1] (setting [4]), 670 nM in assay [2] (setting [5]) and 7 nM in assay [3] (setting [6]).

Consider `Cc1ccc(-n2nccn2)c(C(=O)N2C[C@H]3C[C@@H](Nc4ccc(C(F)(F)F)cn4)[C@@H]2C3)n1` [Example 54, (6-methyl-3-(2H-1,2,3-triazol-2-yl)pyridin-2-yl)((1S,4S,6R)-6-((5-(trifluoromethyl)pyridin-2-yl)amino)-2-azabicyclo[2.2.1]heptan-2-yl)methanone], for which the figures for the Ki in assay [1], in assay [2] and in assay [3] were 6 nM, 132 nM and 5 nM, respectively.

As for `Cc1cccc(C(=O)N2C[C@H]3C[C@@H](Nc4ccc(C(F)(F)F)cn4)[C@@H]2C3)c1-n1nccn1` [Example 55, (3-methyl-2-(2H-1,2,3-triazol-2-yl)phenyl)((1S,4S,6R)-6-((5-(trifluoromethyl)pyridin-2-yl)amino)-2-azabicyclo[2.2.1]heptan-2-yl)methanone], the Ki in assay [1] (setting [4]) stood at 3 nM; in assay [2] (setting [5]) it was 46 nM; in assay [3] (setting [6]), 3 nM.

`CCOc1ccc2cccnc2c1C(=O)N1C[C@H]2C[C@@H](Nc3ccc(C(F)(F)F)cn3)[C@@H]1C2` [Example 56, (7-ethoxyquinolin-8-yl)((1S,4S,6R)-6-((5-(trifluoromethyl)pyridin-2-yl)amino)-2-azabicyclo[2.2.1]heptan-2-yl)methanone]: the Ki in assay [1] (setting [4]) turned out to be 10 nM; in assay [2] (setting [5]), 192 nM; in assay [3] (setting [6]), 8 nM.
